# Like-named read-outs stand apart in the source and are kept apart here.
# What was measured:
# [1] = system: Esherichia coli (25922); assay: MIC, NCCLS broth microdilution; assay type: cell-based, Escherichia coli; settings: Escherichia coli (25922)
# [2] = system: Candida albicans (38247) (Polyene resistant); assay: MIC, antifungal assay; assay type: cell-based
# [3] = system: Staphylococcus aureus (29213); assay: MIC, NCCLS broth microdilution; assay type: cell-based
# [4] = system: Bacillus cereus (11778); assay: MIC, NCCLS broth microdilution; assay type: cell-based
# [5] = system: Enterococcus faecalis (29212); assay: MIC, NCCLS broth microdilution; assay type: cell-based; settings: Enterococcus faecalis (29212)
# [6] = system: Streptococcus pneumoniae (51422) (multiple drug resistant); assay: MIC, NCCLS broth microdilution; assay type: cell-based
# [7] = system: AGTACT; assay: DNase I footprint titration, AGTACT site; assay type: binding; settings: equilibrium association constant Ka; pH 7.0, 22° C.
# [8] = system: ACTACT; assay: DNase I footprint titration, ACTACT site; assay type: binding; settings: equilibrium association constant Ka; pH 7.0, 22° C.
# [9] = system: Propionibacterium acnes (33179); assay: MIC, NCCLS broth microdilution; assay type: cell-based; settings: anaerobe
# [10] = system: Pseudomona aeruginosa (27853); assay: MIC, NCCLS broth microdilution; assay type: cell-based
# [11] = system: Candida albicans (90028); assay: MIC, antifungal assay; assay type: cell-based
# [12] = system: Staphylococcus epidermidis (12228); assay: MIC, NCCLS broth microdilution; assay type: cell-based; settings: Staphylococcus epidermidis (12228)
# [13] = system: AATACT; assay: DNase I footprint titration, AATACT site; assay type: binding; settings: equilibrium association constant Ka; pH 7.0, 22° C.
# [14] = system: Enterococcus faecium (51559) (vacomycin resistant); assay: MIC, NCCLS broth microdilution; assay type: cell-based; settings: Enterococcus faecium (51559), vancomycin resistant
# [15] = system: Micrococcus luteus (381); assay: MIC, NCCLS broth microdilution; assay type: cell-based
# [16] = system: Bacillus subtilis (6633); assay: MIC, NCCLS broth microdilution; assay type: cell-based
# [17] = system: Streptococcus pyogenes (49339); assay: MIC, NCCLS broth microdilution; assay type: cell-based; settings: Streptococcus pyogenes (49339), Table Ia: Streptococcus Group A(49339)
# [18] = system: Staphylococcus aureus (33591) (methicillin resistant); assay: MIC, NCCLS broth microdilution; assay type: cell-based; settings: Staphylococcus aureus (33591), methicillin resistant (MRSA)
# [19] = system: Corynebacterium Group A (49676); assay: MIC, NCCLS broth microdilution; assay type: cell-based
# [20] = system: ATTACT; assay: DNase I footprint titration, ATTACT site; assay type: binding; settings: equilibrium association constant Ka; pH 7.0, 22° C.
# [21] = system: Streptococcus pneumoniae (49619); assay: MIC, NCCLS broth microdilution; assay type: cell-based; settings: Streptococcus pneumoniae (49619)
# [22] = system: Clostridium perfringens (13124); assay: microbe, parasite or virus in culture; assay type: cell-based
# [23] = system: Peptostreptococcus asaccharolytics (29743); assay: MIC, NCCLS broth microdilution; assay type: cell-based; settings: anaerobe
# [24] = system: Listeria monocytogenes (19115); assay: MIC, NCCLS broth microdilution; assay type: cell-based; settings: read-out: MIC
# [25] = system: Haemophilus influenzae (49247); assay: MIC, NCCLS broth microdilution; assay type: cell-based; settings: Haemophilus influenzae (49247)
# [26] = system: Candida parapsilosis (10232); assay: MIC, antifungal assay; assay type: cell-based; settings: Candida parapsilosis (10232)
# [27] = system: Cryptococcus neoformans (90112); assay: MIC, antifungal assay; assay type: cell-based; settings: Cryptococcus neoformans (90112)
# [28] = Bacillus cereus, strain not stated
smiles,measurement,setting,value
Cn1cc(NC(=O)c2cc(NC(=O)c3cc(NC(=O)c4nsc(NCC5CC5)c4Cl)cn3C)cn2C)cc1C(=O)NCCN1CCOCC1 [V-tt],MIC,[1],32 µg/mL
same,MIC,[2],32 µg/mL
same,MIC,[3]; Staphylococcus aureus (29213),0.5 µg/mL
same,MIC,[4]; Bacillus cereus (11778),0.25 µg/mL
Cn1cc(NC(=O)c2cc(NC(=O)c3cc(NC(=O)c4nsc(Cl)c4Cl)cn3C)cn2C)cc1C(=O)NCCN1CCOCC1 [V-mm],MIC,[1],32 µg/mL
same,MIC,[2],32 µg/mL
same,MIC,[3]; Staphylococcus aureus (29213),0.5 µg/mL
same,MIC,[4]; Bacillus cereus (11778),0.25 µg/mL
CN(C)CCCNC(=O)c1cc(NC(=O)c2cc(NC(=O)c3cc(NC(=O)c4nsc(NCCN)c4Cl)cn3C)cn2C)cn1C [V-c],MIC,[5],4 µg/mL
same,MIC,[6],4 µg/mL
same,"Binding Constant, sequence AGTACT",[7],5e+09 M⁻¹
same,"Binding Constant, sequence ACTACT",[8],2e+08 M⁻¹
same,MIC,[9],8 µg/mL
same,MIC,[10]; Pseudomona aeruginosa (27853),>128 µg/mL
same,MIC,[1],>128 µg/mL
same,MIC,[11],8 µg/mL
same,MIC,[12],8 µg/mL
same,"Binding Constant, sequence AATACT",[13],2e+08 M⁻¹
same,MIC,[14],8 µg/mL
same,MIC,[15],8 µg/mL
same,MIC,[16]; Bacillus subtilis (6633),4 µg/mL
same,MIC,[17],2 µg/mL
same,MIC,[3]; Staphylococcus aureus (29213),8 µg/mL
same,MIC,[18],16 µg/mL
same,MIC,[19]; Corynebacterium Group A (49676),1 µg/mL
same,"Binding Constant, sequence ATTACT",[20],2e+08 M⁻¹
same,MIC,[21],2 µg/mL
same,MIC,"[22]; Clostridium perfringens (13124), anaerobe",2 µg/mL
same,MIC,[4]; Bacillus cereus (11778),4 µg/mL
same,MIC,[23],0.5 µg/mL
Cn1cc(NC(=O)c2cc(NC(=O)c3cc(NC(=O)c4nsc(Cl)c4Cl)cn3C)cn2C)cc1C(=O)NCCC1=NCCN1 [V-uu],MIC,[3]; Staphylococcus aureus (29213),0.25 µg/mL
same,MIC,[4]; Bacillus cereus (11778),1 µg/mL
CN(C)CCCNC(=O)c1cc(NC(=O)c2cc(NC(=O)c3cc(NC(=O)c4nsc(N5CCCCC5)c4Cl)cn3C)cn2C)cn1C [V-w],MIC,[4]; [28],0.5 µg/mL
CN(C)CCCNC(=O)CCNC(=O)c1cc(NC(=O)c2cc(NC(=O)c3cc(NC(=O)c4nsc(Cl)c4Cl)cn3C)cn2C)cn1C [V-u],"Binding Constant, sequence AGTACT",[7],1e+11 M⁻¹
same,"Binding Constant, sequence ACTACT",[8],1e+09 M⁻¹
same,"Binding Constant, sequence AATACT",[13],1e+08 M⁻¹
same,"Binding Constant, sequence ATTACT",[20],5e+08 M⁻¹
"CC1COc2c(N3CCN(C)CC3)c(F)cc3c(=O)c(C(=O)O)cn1c23 (centres unmarked) [Ofloxacin, ofloxacin, reference compound]",MIC,[5]; read-out: MIC,8 µg/mL
same,MIC,"[9]; Cutibacterium acnes, read-out: MIC",0.25 µg/mL
same,MIC,[10],> 128 µg/mL
same,MIC,[1]; read-out: MIC,0.03 µg/mL
same,MIC,[12]; read-out: MIC,0.25 µg/mL
same,MIC,[14]; read-out: MIC,8 µg/mL
same,MIC,[15]; read-out: MIC,1 µg/mL
same,MIC,[16]; Bacillus subtilis,0.125 µg/mL
same,MIC,[17]; read-out: MIC,1 µg/mL
same,MIC,[3]; Staphylococcus aureus,0.125 µg/mL
same,MIC,[18]; read-out: MIC,0.25 µg/mL
same,MIC,[24],1 µg/mL
same,MIC,[19]; Corynebacterium,0.125 µg/mL
same,MIC,[21]; read-out: MIC,1 to 2 µg/mL
same,MIC,[22]; Clostridium perfringens,0.25 µg/mL
same,MIC,[25]; read-out: MIC,0.25 µg/mL
same,MIC,[4]; Bacillus cereus,0.125 µg/mL
same,MIC,[23]; read-out: MIC,0.5 µg/mL
CN(C)CCCNC(=O)CCNC(=O)c1cc(NC(=O)c2cc(NC(=O)c3cc(NC(=O)c4nc(NC(=O)CCCNC(=O)c5cc(NC(=O)c6cc(NC(=O)c7cc(NC(=O)c8nsc(Cl)c8Cl)cn7C)cn6C)cn5C)cn4C)cn3C)cn2C)cn1C [VI-a],"Binding Constant, sequence AGTACT",[7],2e+10 M⁻¹
same,"Binding Constant, sequence ACTACT",[8],2e+09 M⁻¹
same,"Binding Constant, sequence AATACT",[13],2e+09 M⁻¹
same,"Binding Constant, sequence ATTACT",[20],2e+09 M⁻¹
Cn1cc(NC(=O)c2cc(NC(=O)c3nsc(NCCN4CCOCC4)c3Cl)cn2C)cc1C(N)=O [V-bb],MIC,[4]; [28],8 µg/mL
CCN(CC)CCNC(=O)CCNC(=O)c1cc(NC(=O)c2cc(NC(=O)c3nsc(NCCN(CC)CC)c3Cl)cn2C)cn1C [V-r],MIC,[5],16 µg/mL
same,MIC,[26],2 µg/mL
same,MIC,[1],>128 µg/mL
same,MIC,[2],>128 µg/mL
same,MIC,[11],>128 µg/mL
same,MIC,[3]; Staphylococcus aureus (29213),>128 µg/mL
same,MIC,[27],16 µg/mL
same,MIC,[21],16 µg/mL
same,MIC,[25],>128 µg/mL
same,MIC,[4]; Bacillus cereus (11778),>128 µg/mL
Cn1cc(NC(=O)c2cc(NC(=O)c3cc(NC(=O)c4nsc(NCCN)c4Cl)cn3C)cn2C)cc1C(=O)NCCC1=NCCN1 [V-qq],MIC,[1],32 µg/mL
same,MIC,[2],32 µg/mL
same,MIC,[3]; Staphylococcus aureus (29213),0.25 µg/mL
same,MIC,[4]; Bacillus cereus (11778),0.25 µg/mL

# Source: patent US20020065227A1, “Charged compounds comprising a nucleic acid binding moiety and uses therefor” (priority 2000, published 2002)
